Measurements taken from patent US10864296B2, “Polypeptide and hyaluronic acid coatings” (INSTITUT NATIONAL DE LA SANTE ET DE LA RECHERCHE MEDICALE …, priority 2017, dated 2020).
Where “and” joins values, the source holds several entries; their conditions need not be identical. Equal values may be shown once.

Legend:
[1] = tested on: S. aureus; settings: Adv. Funct. Mater. 2013, 23, 4801-4809; cited from earlier work
[2] = Fluorescence recovery after photobleaching (FRAP) of PAR-FITC in (PAR/HA)24 multilayers; format: physicochemical; settings: PAR-FITC in (PAR/HA)24 multilayer, hydrochloride
Method: The diffusion coefficient, D, and the proportion of mobile molecules, p, was measured for (PAR/HA)24 multilayers containing PAR-FITC by performing photobleaching experiments (FRAP, Fluorescence Recovery After Photobleaching).
A glass slide coated with the multilayer was introduced in a home-made sample holder and immerged in 200 μl of Tris-NaCl buffer. One circular regions (4.4 μm in radius and referred as “R4” in an image of 35 μm×35 μm or 10.6 μm in radius and referred as “R10” in an image of 85 μm×85 μm) were exposed for 700 msec to the laser light set at its maximum power (λ=488 nm). Then, the recovery of the fluorescence in the bleached area was observed over time. Observations were carried out with a Zeiss LSM 710 microscope (Heidelberg, Germany) using a 20× objective (Zeiss, Plan Apochromat).
Then the inventors investigated if the bactericidal activity of the PAR30/HA multilayer is related to the mobility of these chains in the films. Indeed, it is known that the exponential character of a multilayer is related to the diffusion ability of at least one of its constituents in and out of the film during each deposition step. They first determined the mobility of the different chains, PAR10, PAR30, PAR100 and PAR200 in the (PAR/HA)24 multilayer by using FRAP method. […] Recovery of fluorescence appears very fast for PAR10 and PAR30 compare to PAR100 or PAR200. From these curves we can deduce the percentage of mobile chains over the timescale of the experiments. It clearly appears that PAR10 and PAR30 chains are more mobile (between 85 to 90% of mobile fraction) than the PAR100 (only 63% of mobile fraction). The largest chains PAR200 correspond to the slowest with about 12% of the population which is mobile (FIG. 8). Accordingly, the fraction of mobile chains dramatically decreases when the chain length increases from 30 to 100 or 200 residues.

[3] = tested on: S. aureus; assay: Minimal inhibitory concentration (MIC) of PAR in solution, 24 h in MHB medium with S. aureus; format: cell-based, Staphylococcus aureus; settings: for times less active than PAR100 or PAR200 chains (from MICs in solution): per chain; for bacterial growth inhibition in solution: PAR 1 μM
Method: PAR with 10, 30, 100 or 200 arginine residues per chain were tested. Each PAR was incubated 24 h at 37° C. in 300 μL of MHB medium with S. aureus (A620=0.001). Pathogen growth of 0% corresponds to medium with antibiotics (and without PAR) and 100% to medium without PAR. Each value corresponds to the mean value of 3 individual experiments (3 samples per experiment and condition) and error bars correspond to standard deviations. For each concentration, the first column represents the normalized pathogen growth of S. aureus for PAR10, the 2nd column for PAR30, the third column for PAR100 and the fourth for PAR200.
Staphylococcus aureus (S. aureus, ATCC 25923) strains were used to assess the antibacterial properties of the test samples. Bacterial strain was cultured aerobically at 37° C. in a Mueller Hinton Broth (MHB) medium (Merck, Germany), pH 7.4. One colony was transferred to 10 mL of MHB medium and incubated at 37° C. for 20 h, to provide a final density of 10^6 CFU·mL^−1. To obtain bacteria in the mid logarithmic phase of growth, the absorbance at 620 nm of overnight culture was adjusted of 0.001.
In the following the inventors of the present invention wanted to further elucidate the underlying mechanism that confer to the coatings of the invention the strong inhibitory property on the surface and in the supernatant. As an example the (PAR30/HA)24 coating was further investigated. Accordingly, the minimal inhibitory concentration (MIC) of PAR in solution was determined using bacterial assay as described in Experimental Section. […] Finally for PAR at concentrations of 0.01 mg·mL^−1, inhibition of 100% was shown only for PAR30. Longer or shorter PAR chains (PAR10, PAR100 or PAR200) inhibits only partially (less than 40%) S. aureus growth. […] This reasoning is valid when PAR concentration values are expressed in mass (mg·mL^−1) thus it is related to the number of arginine monomers. However when the graph is plotted with concentrations in μM (and thus proportional in number of chains), which means that concentration is related to number of chains, different interpretation can be made (Data not shown). […] Moreover the MIC100 values obtained for PAR30, PAR100 or PAR200 ranges at very low concentrations (between 1 and 2 μM) which is remarkable when compared to well-known antimicrobial peptides (for example 30 μM for cateslytin with S. aureus, see Adv. Funct. Mater. 2013, 23, 4801-4809). PAR is thus a powerful candidate to fight against S. aureus.

[4] = Release of PAR-FITC from (PAR30/HA)24 into the supernatant; format: physicochemical; settings: after 24 h, from (PAR30/HA)24 built with PAR-FITC, 37° C.
Method: For the first experiment, a multilayer coating (PAR30/HA)24 was built by using PAR-FITC. Release experiments were performed at 37° C. during 24 h in presence of MHB medium or a S. aureus/MHB solution (A620=0.001). 300 μL of mineral oil were added on the top of the supernatant to prevent any evaporation during the monitoring. The release of PAR-FITC in solution was performed by measuring the fluorescence of the supernatant over time with a spectrofluorimeter (SAFAS Genius XC spectrofluorimeter, Monaco) with excitation/emission wavelength of 488/517 nm. Three samples were studied for each conditions.
In view of the absence of specific properties of PAR30 in solution compared to shorter or longer PAR chains, the antimicrobial abilities of PAR30/HA films should be related to the film property by itself. In this context, the inventors investigated if the bactericidal property of the film is due to the release of PAR30 chains from the multilayer into the solution or if bacteria need to come in contact with the film to be killed. For this purpose two types of experiments were performed. Using fluorescently labelled PAR30 chains we first determined the release of PAR30 chains into the solution containing solely MH medium with and without S. aureus. […] Finally, we also performed an experiment where bacteria were brought in contact with a (PAR30/HA)24 film for 24 hours. […]

[5] = PAR concentrations up to 0.04 mg·mL^−1

Substance | MIC of a well-known antimicrobial peptide, compared with MIC100 of PAR [1] [µM] | proportion of mobile PAR chains (mobile fraction) [2] | S. aureus growth inhibition in solution (in words) ([3]; PAR 0.02 mg·mL^−1) | S. aureus growth inhibition in solution (in words) [3, 5] | concentration needed for a similar effect (about 90% inhibition) ([3]; in solution, S. aureus) | times less active than PAR100 or PAR200 chains (from MICs in solution) ([3]; hydrochloride) [times] | S. aureus growth inhibition in solution ([3]; PAR 0.01 mg·mL^−1, hydrochloride) [%] | MIC90 ([3]; in solution, S. aureus) | PAR30 released into solution [4] | bacterial growth inhibition in solution [3] | S. aureus growth inhibition in solution ([3]; PAR 0.02 mg·mL^−1)
cateslytin | 30 |  |  |  |  |  |  |  |  |  | 
poly(I-arginine hydrochloride) [PAR10] |  | ~90% | quasi total inhibition | totally inhibited | about 10 μM | 10 |  |  |  |  | 
poly(I-arginine hydrochloride) [PAR30] |  |  | quasi total inhibition | totally inhibited | about 10 μM | 2 | 100 | about 2 μM | about 0.18 μM |  | 
poly(I-arginine hydrochloride) [PAR100] |  | 63% and 70% | quasi total inhibition | totally inhibited |  |  |  |  |  | about 90% | 
poly(I-arginine hydrochloride) [PAR200] |  | about 12% |  | totally inhibited |  |  |  |  |  | about 90% | about 45%
